We go through 1 compound from ChEMBL document CHEMBL3044528, “Potential new fungicides: N-acyl-5-methyl-3(2H)-isoxazolone derivatives” (2012).

Format in all cases: functional
The subject of one experiment is Pyrenophora graminea. The experiment in a line: Fungicidal activity against Pyrenophora graminea IFO-7507 assessed as mycelial growth inhibition at 25 mg/L after 3 days. Particulars: IFO-7507, 72 h, read-out: GI.
For another experiment, the system named is Alternaria alternata. The experiment in a line: Fungicidal activity against Alternaria alternata APS-38 assessed as mycelial growth inhibition at 25 mg/L after 3 days. The following applies: APS-38, 72 h, read-out: GI.
The test system of a further experiment is Cercospora beticola. The experiment in a line: Fungicidal activity against Cercospora beticola Be-2-6 assessed as mycelial growth inhibition at 25 mg/L after 7 days. The following applies: Be-2-6, 168 h, read-out: GI.
A further experiment concerns Rhizoctonia solani. The experiment in a line: Fungicidal activity against Rhizoctonia solani ET0007 assessed as mycelial growth inhibition at 25 mg/L after 1 day. The following applies: ET0007, 24 h, read-out: GI.
A further experiment concerns Rhynchosporium secalis. The experiment in a line: Fungicidal activity against Rhynchosporium secalis IFO-5290 assessed as mycelial growth inhibition at 25 mg/L after 14 days. Particulars: IFO-5290, 336 h, read-out: GI.
In another experiment the test system is Microdochium nivale. Kind of experiment: Fungicidal activity against Microdochium nivale IFO-7432 assessed as mycelial growth inhibition at 25 mg/L after 3 days. The following applies: IFO-7432, 72 h, read-out: GI.
For a further experiment, the system named is Gaeumannomyces graminis. The experiment in a line: Fungicidal activity against Gaeumannomyces graminis MAFF305168 assessed as mycelial growth inhibition at 25 mg/L after 1 day. Particulars: MAFF305168, 24 h, read-out: GI.
The test system of the next experiment is Fusarium graminearum. Kind of experiment: Fungicidal activity against Fusarium graminearum H3 assessed as mycelial growth inhibition at 25 mg/L after 3 days. Particulars: H3, 72 h, read-out: GI.
The subject of another experiment is Zymoseptoria tritici. Kind of experiment: Fungicidal activity against Zymoseptoria tritici S3 assessed as mycelial growth inhibition at 25 mg/L after 14 days. The following applies: S3, 336 h, read-out: GI.

On to `Cc1cc(O)no1` [HYMEXAZOL], for which the inhibition of growth at 25 µg/mL came out at 80% with Pyrenophora graminea; 74% in the experiment with Alternaria alternata; 88% in the experiment with Cercospora beticola; 28% in the experiment with Rhizoctonia solani; 100% in the experiment with Rhynchosporium secalis; 77% in the experiment with Microdochium nivale. Further, the values for the inhibition of growth at 25 µg/mL in the experiment with Gaeumannomyces graminis, in the experiment with Fusarium graminearum and in the experiment with Zymoseptoria tritici were 56%, 45% and 86%, respectively.
